Measurements published in PMC10682503, “Structural and functional basis of inositol hexaphosphate stimulation of NHEJ through stabilization of Ku-XLF interaction” (Nucleic Acids Research, 2023).

Key:
KuFL = target: T1, KuFL (Homo sapiens, UniProt P12956+P13010); assay: nanoDSF thermal stability of KuFL; conditions: in the absence of DNA, increasing IP6 concentrations
T1 construct: The full-length human Ku heterodimer subunits (Ku70 1–609, Ku80 1–732); 10x His-tag with TEV site (N); made in house; host or cells: Sf21 insect cells (baculovirus, MultiBac)
Method: nano-Differential Scanning Fluorimetry. nanoDSF measurements were performed on a Tycho NT.6 device (NanoTemper) with KuFL dialyzed against buffer 20 mM Tris HCl pH 8, 150 mM NaCl, 5 mM β-mercaptoethanol. We used 9 µL of KuFL at 5 µM in absence or presence of DNA at 7.5 µM to obtain a (1:1.5) molar ratio. Measurements were performed in presence of IP6 concentrations ranging from 0 to 10 µM. Stocks solutions of IP6 and analogues are prepared so that 1 µL of IPs solutions are used in the 10 µL capillary for all concentrations tested. Each point corresponds to an average of three measurements. The temperature of transition that corresponds to the change of environment of the tryptophan is deduced from the first inflexion point of the 330 nm/350 nm ratio versus temperature.

KuFL-DNA interaction = target: T2, KuFL-DNA interaction (Homo sapiens, UniProt P12956+P13010); assay: switchSENSE kinetics of KuFL interaction with 48bp DNA; assay type: binding; conditions: IP6 3 μM
T2 construct: The full-length human Ku heterodimer subunits (Ku70 1–609, Ku80 1–732); 10x His-tag with TEV site (N); made in house; host or cells: Sf21 insect cells (baculovirus, MultiBac)
Method: switchSENSE: A DRX 2400 instrument and a multi-purpose 48bp chip were used for switchSENSE measurements (both Dynamic Biosensors GmbH; Planegg, Germany). The sample and running buffer was in 10 mM Tris HCl pH 7.4, 140 mM NaCl, 50 µM EDTA, 0.05 % Tween-20, 50µM EDTA. Kinetics experiments of Ku interaction with DNA in presence or absence of IP6 were performed on a DRX2 instrument. Complementary DNA to the strand immobilized on the chip was first hybridized on the measurement electrodes. The association and dissociation between Ku and DNA, with or without IP6 (3 µM) at Ku concentration (0-15-30-60-120-240 nM were measured in a flow rate of 200 µL/min. Kinetics experiments of Ku interaction with DNA and XLF with or without DNA were performed on a Helix instrument. The sample and running buffer was in 10 mM Tris HCl pH 7.4, 140 mM NaCl, 50 µM EDTA, 0.05 % Tween-20 with or without IP6 (20 µM). The flow rate of all conditions are at 500 µL/min.

[1] = target: T3, Ku-2E (Ku70-K357E, Ku80-K481E) (Homo sapiens, UniProt P12956+P13010, K357E/K481E); assay: ITC, Ku-2E mutant with IP6; assay type: binding
T3 construct: 10x His-tag with TEV site (same vector as KuFL) (N); made in house; host or cells: Sf21 insect cells
Method: (§1) Purification of Ku full-length (KuFL) for cryo-EM experiments was carried out as described previously ([5]). Expression and purification of KuFL for biophysical experiments was carried out as described previously ([20]). The full-length human Ku heterodimer subunits (Ku70 1–609, Ku80 1–732) were cloned into a Multibac vector ([21]). The construct has a 10× His-tag and a TEV site on the N-terminus of Ku80 and no-tag on Ku70. Protein production was initiated in Sf21 cells by infection with the baculovirus stock at MOI of 5 × 10^−3 and cells were collected 5–6 days after the infection (3–4 days after the proliferation arrest). Cells were sonicated and the supernatant was incubated with Benzonase (300 units for 30 min at 4°C). The Ku heterodimer was purified on a NiNTA-Agarose affinity column (Protino, Macherey Nagel) with a 1 M NaCl wash step to remove DNA excess. The eluted Ku was then bound onto an anion exchange column (Resource Q, Cytiva) equilibrated in 20 mM Tris pH 8.0, 50 mM NaCl, 50 mM KCl, 10 mM β-mercaptoethanol and eluted with a salt gradient. […]
(§2) Calorimetry. Interactions between KuFL and inositol phosphates (IPs) (IP6 and IP6 analogues) were determined by Isothermal Titration Calorimetry (ITC) using a VP-ITC calorimeter (Malvern). […] The free energy of binding (ΔG) and the entropy (ΔS) were determined using the classical thermodynamic formula, ΔG = - RT ln(Ka) and ΔG = ΔH - TΔS. […]

[2] = target: T4, Ku-4E (Ku70 H359E-H360E/Ku80 K413E H414E) (Homo sapiens, UniProt P12956+P13010, H359E/H360E/H414E/K413E); assay: ITC, Ku-4E mutant with IP6; assay type: binding
T4 construct: 10x His-tag with TEV site (same vector as KuFL) (N); made in house; host or cells: Sf21 insect cells
Method: as §1, §2

[3] = target: T4, Ku-4E (Ku70 H359E-H360E/Ku80 K413E H414E); assay: nanoDSF thermal stability of Ku-4E; conditions: Ku-4E with DNA
[4] = target: T3, Ku-2E (Ku70-K357E, Ku80-K481E); assay: nanoDSF thermal stability of Ku-2E; conditions: Ku-2E with DNA
c-NHEJ = conditions: cited from earlier work
S. cerevisae Ku = system: S. cerevisae Ku; parameters: method as in PMID 11953323; conditions: cited from earlier work

T3 sequence (P12956 whole entry K357E): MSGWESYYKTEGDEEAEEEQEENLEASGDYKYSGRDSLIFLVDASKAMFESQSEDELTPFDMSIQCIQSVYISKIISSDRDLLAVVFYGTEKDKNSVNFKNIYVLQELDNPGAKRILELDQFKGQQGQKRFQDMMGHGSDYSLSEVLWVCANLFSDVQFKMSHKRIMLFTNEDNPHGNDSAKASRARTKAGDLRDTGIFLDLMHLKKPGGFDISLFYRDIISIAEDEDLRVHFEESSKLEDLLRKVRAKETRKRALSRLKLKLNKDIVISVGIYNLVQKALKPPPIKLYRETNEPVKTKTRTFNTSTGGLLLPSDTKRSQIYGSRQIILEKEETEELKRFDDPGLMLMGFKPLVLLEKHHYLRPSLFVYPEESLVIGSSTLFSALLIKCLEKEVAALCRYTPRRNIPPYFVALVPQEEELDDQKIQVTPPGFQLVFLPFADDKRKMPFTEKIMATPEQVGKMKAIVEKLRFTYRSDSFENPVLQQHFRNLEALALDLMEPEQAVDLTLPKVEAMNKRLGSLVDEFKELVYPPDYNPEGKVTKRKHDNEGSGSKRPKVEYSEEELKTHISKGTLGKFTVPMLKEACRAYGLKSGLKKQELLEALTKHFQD
T3 sequence (P13010 whole entry K481E): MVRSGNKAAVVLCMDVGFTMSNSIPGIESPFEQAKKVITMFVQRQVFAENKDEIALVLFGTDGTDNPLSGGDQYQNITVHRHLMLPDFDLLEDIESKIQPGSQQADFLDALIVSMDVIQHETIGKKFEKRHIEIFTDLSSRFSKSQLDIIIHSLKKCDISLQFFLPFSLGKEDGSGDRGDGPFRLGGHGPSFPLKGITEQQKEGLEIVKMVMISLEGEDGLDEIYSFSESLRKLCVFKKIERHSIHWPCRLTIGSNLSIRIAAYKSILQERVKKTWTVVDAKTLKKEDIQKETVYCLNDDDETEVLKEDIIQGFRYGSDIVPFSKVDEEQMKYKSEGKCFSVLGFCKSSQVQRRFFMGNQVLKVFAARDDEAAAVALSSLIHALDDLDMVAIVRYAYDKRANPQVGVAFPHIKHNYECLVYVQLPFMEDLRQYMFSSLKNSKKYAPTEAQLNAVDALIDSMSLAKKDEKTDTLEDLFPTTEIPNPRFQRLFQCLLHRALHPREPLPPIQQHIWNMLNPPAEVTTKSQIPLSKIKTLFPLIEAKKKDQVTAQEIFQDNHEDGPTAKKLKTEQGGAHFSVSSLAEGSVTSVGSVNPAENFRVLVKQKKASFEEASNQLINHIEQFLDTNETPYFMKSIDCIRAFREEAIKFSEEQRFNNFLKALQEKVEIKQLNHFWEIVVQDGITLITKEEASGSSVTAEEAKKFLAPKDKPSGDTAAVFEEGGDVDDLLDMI
T4 sequence (P12956 whole entry H359E/H360E): as the sequence (P12956 whole entry K357E) above, with E357K, H359E, H360E counted along it
T4 sequence (P13010 whole entry K413E/H414E): as the sequence (P13010 whole entry K481E) above, with K413E, H414E, E481K counted along it
T2 sequence (P12956 whole entry): as the sequence (P12956 whole entry K357E) above, with E357K counted along it
T2 sequence (P13010 whole entry): as the sequence (P13010 whole entry K481E) above, with E481K counted along it
T1 sequence (P12956 whole entry): as the sequence (P12956 whole entry K357E) above, with E357K counted along it
T1 sequence (P13010 whole entry): as the sequence (P13010 whole entry K481E) above, with E481K counted along it

Compound: O=P(O)(O)O[C@H]1[C@H](OP(=O)(O)O)[C@@H](OP(=O)(O)O)[C@H](OP(=O)(O)O)[C@@H](OP(=O)(O)O)[C@H]1OP(=O)(O)O [IP6, inositol hexaphosphate]
- effect on Ku thermal stability (KuFL): no significant effect
- effect on Ku-DNA interaction (KuFL-DNA interaction): slight stimulation of the interaction
- interaction with IP6 as measured by ITC [1]: no interaction
- interaction with IP6 as measured by ITC [2]: no interaction
- further thermal stabilization by IP6 [3]: not further stabilized
- extra thermal stabilization by IP6 [4]: no extra stabilization
- effect on end-joining of a linear plasmid substrate and DNA-PK dependent phosphorylation of XLF (c-NHEJ; human cell extracts): stimulated
- effect on c-NHEJ (c-NHEJ; human whole-cell extracts): stimulate c-NHEJ
- interaction between S. cerevisae Ku and IP6 (S. cerevisae Ku): absence of interactions
